Experimental findings from paper PMC10630888, “Nuclear ERK1/2 signaling potentiation enhances neuroprotection and cognition via Importinα1/KPNA2” (EMBO Molecular Medicine, 2023) are described below.

Values joined by “and” are separate entries in the source; they are usually repeats but may differ in a detail not shown here. Identical values can stand only once.

For test [1], the system named is p-ERK1/2 in DARPP-32+ neurons. Nature of the test: p-ERK1/2 in DARPP-32+ iPSC-derived HD MSNs. Type of test: cell-based, human. To be noted: for p-ERK1/2 in DARPP-32+ neurons (Fig 5 panel e): individual replicates. How it is done:
The human induced pluripotent stem cell line CS09iHD109‐n1 (herein referred to as Q109N1) was originally generated from a human fibroblast line ND39258 (RRID:CVCL_ZC78) with an expanded HTT allele initially containing 109 pure CAG trinucleotides, and the isogenic control lines used were derived by CRISPR gene‐edit to reduce the CAG repeat length to 20 repeats (Mattis et al, [2015]). IPSCS were cultured on hESC‐qualified Matrigel (Corning) in E8‐Flex medium (Thermo Fisher) and passaged with RelesR (Stem Cell Technologies) according to the manufacturer's instructions. For neural differentiation iPSCS were grown to 70% confluency and then treated with 10 μM Y‐27632 (Tocris) for 1 h before harvesting by dissociation to a single cell suspension using accutase (Sigma). IPSCs were replated onto fresh Matrigel‐coated plates at a split ratio of 1:2, in E8‐Flex medium containing 10 μM Y‐27632. After overnight culture, IPSCs at 80–90% confluency were washed with PBS pH 7.4 (Gibco) and then switched to neural induction medium (Advanced DMEM/F12 (1:1) supplemented with 2 mM GlutamaxTM (Gibco), 2% Neurobrew without vitamin A (Miltenyi), 10 μM SB431542, 1 μM LDN 193189 (both Stem Cell Technologies), and 1.5 μM IWR1 (Tocris)). Medium was changed daily until day 8, when cells were passaged 1:2 by cell dissociation with Accutase for 5 min at 37°C and replated on Matrigel® coated plates in LIA medium containing (Advanced DMEM/F12 (1:1) supplemented with 2 mM GlutamaxTM, 2% Neurobrew without vitamin A, 0.2 μM LDN 193189, 1.5 μM IWR1, and 20 ng/ml Activin A (Peprotech)). At day 16, cells were plated for neuronal differentiation according to (Telezhkin et al, [2016]). […]
Images were acquired using a confocal microscope (Zeiss LSM710) under a 20× objective and analyzed with ImageJ software.

For test [2], the system named is phospho-ERK1/2 in HEK293 cells. In words: phospho-ERK1/2 immunofluorescence (nuclear) in HEK293 cells. The following applies: HEK293, siRNA 200 nM 24 h, then RB5 50 μM 15 min. The format is cell-based. How it is done:
For Western blot and immunofluorescence analysis, 0.6 × 10^6 HEK293 cells were seeded in 6‐well plates in the presence of DMEM High Glucose GlutaMax (Thermo Fisher Scientific) containing 10% Foetal Bovine Serum (FBS, Thermo Fisher Scientific) and 100 U/ml penicillin/streptomycin (Thermo Fisher Scientific). For Western blot analysis to assess ERK1/2 and phospho‐ERK1/2 levels, cells were serum starved for 24 h and incubated with RB5 50 μM or FBS 20% for 15 min at 37°C. To assess JNK and phospho‐JNK levels, cells were incubated with RB5 50 μM or anisomycin 5 μM for 30 min at 37°C. For immunofluorescence analysis, cells were serum‐starved for 24 h and incubated with 50 μM RB5 or 20% FBS for 15 min at 37°C.
After rinsing in PBS, cells were fixed in 4% PFA and permeabilized with increasing concentrations of methanol (33, 50, 75, and 95% in PBS, 2 min each at room temperature), followed by 100% methanol for 10 min at −20°C. […] The mean fluorescence intensity in the nucleus was calculated automatically by Fiji‐ImageJ software in 8–10 fields per slide. […]

Regarding “GRKKRRQRRRPPQGGGGGEPRRTEGVGPGVPGEVEMVKGQPFDV [RB5, six D-amino acids, acetylated N-terminus]”, the “p-ERK1/2 in DARPP-32+ neurons (Fig 5 panel e)” value in test [1] (CTR iPSC-derived MSNs) is 32.3403 and 42.5 and 40 and 34.7652 and 35.2993; in test [1] (HD iPSC-derived MSNs), 36.3889 and 24.1289 and 36.2319 and 31.1704 and 41.2043 and 24.6269. Besides, in test [1] (HD and isogenic control iPSC-derived MSNs, 50 μM, 30 min), the “p-ERK1/2 in DARPP-32+ neurons” value is on record as “upregulated”. Moreover, the “ERK1/2 activation (nuclear phospho-ERK1/2) after KPNA2 or IPO7 downregulation” value in test [2] is “failed to induce ERK1/2 activation”.
